Measured values taken from patent publication US11964984B2, “TXNIP-TRX complex inhibitors and methods of using the same” (CITY OF HOPE, priority 2020, dated 2024).

Tests used:
[1] = tested on: TNF-α mRNA; experiment: TNF-α mRNA expression in THP1 cells under 25 mM glucose (RT-PCR); assay type: cell-based, human; settings: 72 hours, relatively higher concentrations needed than for TXNIP mRNA
Experimental: FIGS. 2A-2B. FIG. 2A: C30 and C38 inhibited TXNIP mRNA expression in THP1 cells. THP1 cells were cultured under 25 mM glucose with the indicated concentrations of compounds for 72 hours. Cells were then collected for total RNA preparation. RT-PCR was performed, and data shown are the mean±SEM from triplicates. Statistical analysis was performed using one-way ANOVA, *p<0.0001. FIG. 2B: C30 and C38 inhibited TNF-α mRNA expression in THP1 cells. THP1 cells were cultured under 25 mM glucose with various concentrations of compounds as indicated for 72 hours and collected for total RNA preparation. RT-PCR was performed, and data shown are the mean±SEM from triplicates. Statistical analysis was performed using one-way ANOVA: *<0.02; **<0.0001.
Treatment with both agents lead to lower levels of TNF-α mRNA, although this required relatively higher concentrations compared to those that suppressed TXNIP mRNA (see FIG. 2A).
RNA extraction and quantitative RT-PCR. RNA was extracted using the Direct-zol™ RNA MiniPrep Plus (Zymo Research). […] Diluted cDNA was quantified using real-time PCR performed with Power SYBR Green qPCR MasterMix (Applied Biosystem) and 7500 real-time PCR system (Applied Biosystems). […]

[2] = Body weight after maximum dose regime (90 mg/kg) in mice; assay type: in vivo; settings: 90 mg/kg oral gavage daily for 5 days, euthanasia 96 hr after last dose
Experimental: FIG. 15. Murine weight change after maximum dose regime (90 mg/kg).
The effects of compounds C30 and C38 at single high dose of 90 mg/kg. Twelve male mice were divided into three groups: 1) Control group (4 mice), 2) compound C30 (4 mice) and 3) compound C38 (4 mice). By oral gavage, animals were given 90 mg/kg of agent daily for 5 consecutive days (vehicle: 30% Solutol in saline). Mice were weighed every day during the treatment period. They were humanely euthanized 96 hours after the last dose. Tissues including the pancreas, liver and kidneys were collected (snap frozen in liquid nitrogen) for RNA extraction. […] Those given compound C30 lost ˜5% of body weight (FIG. 15).

[3] = target: T1, TXNIP (Homo sapiens, UniProt Q9H3M7); experiment: Drug affinity responsive target stability (DARTS) assay, THP1 cell extracts; assay type: binding; settings: THP-1 cell extracts, protease, aliquots at 7 minutes
T1 construct: THP1 cells were lysed with extract buffer; endogenous in cells; host or cells: THP1 cells cultured in RPMI 1640 under 25 mM glucose for 72 hours; cell extracts
T1 sequence (Q9H3M7 1-391): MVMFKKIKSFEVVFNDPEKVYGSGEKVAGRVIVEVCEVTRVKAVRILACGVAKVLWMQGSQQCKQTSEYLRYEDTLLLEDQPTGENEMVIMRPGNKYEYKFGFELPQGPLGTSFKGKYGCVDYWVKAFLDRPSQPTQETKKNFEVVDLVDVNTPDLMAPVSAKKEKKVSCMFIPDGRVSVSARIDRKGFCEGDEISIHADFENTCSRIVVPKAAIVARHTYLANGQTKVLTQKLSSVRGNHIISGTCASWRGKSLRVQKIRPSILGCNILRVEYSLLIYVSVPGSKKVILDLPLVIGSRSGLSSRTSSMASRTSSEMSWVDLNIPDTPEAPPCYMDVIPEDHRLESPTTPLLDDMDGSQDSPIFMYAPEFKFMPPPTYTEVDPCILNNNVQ
Experimental: FIG. 9. Treatment with C30 and C38 protects TXNIP from proteolysis in a DARTS assay. THP1 cell were cultured in RPMI 1640 medium under 25 mM glucose for 72 hours. Cell extracts were prepared. C30 and C38 were added at the indicated concentrations and protease was added except control lanes. Aliquots were withdrawn at 7 minutes and loaded on 10% SDS gels. Control: without protease.
Experimental testing of small molecules: We developed several different bench-based assays to perform rigorous and reproducible tests for the predicted hit molecules. These assays include testing direct binding to TXNIP as well as functional assays including under diabetic high glucose conditions. The assays are: (1) drug affinity responsive target stability test that tests the direct binding of the compounds. In this assay, when a compound binds to its target molecule, it can reduce the rate of its proteolytic digestion. (2) This assay looks for compounds that can interfere with the interaction between TXNIP and TRX in THP-1 monocytes treated with high glucose. TXNIP is highly expressed in cells treated with high glucose, and therefore would have high concentration of TXNIP/TRX complexes in the cell extract. Co-immunoprecipitation was done in these extracts through adding TRX antibody, and then the effects of compounds added were tested. […]

| concentration from which TXNIP is protected from proteolysis [3] [µM] | SMILES | TNF-α mRNA expression [1] | loss of body weight [2] [%] | weight loss [2] |
| --- | --- | --- | --- | --- |
| ~0.5 | COc1cc(N2CC[C@@H](c3ccc4ccccc4c3)[C@H](O)C2)nc(N)n1 [Compound C30] | reduced TNF-α expression | ~5 |  |
| ~0.5 | c1ccc(CCNc2ncnc3c2oc2ccccc23)cc1 [Compound C38] | reduced TNF-α expression |  | no significant weight loss |
